Like-named read-outs stand apart in the source and are kept apart here.
Tests used:
[1] = tested on: subject diagnosed with tardive dyskinesia (TD)
Description: Reduced glutathione was administered to the subject 5 times per day in a solution in the amount of about 18.25 mg per spray or about 91.25 mg per administration. The subject cleaned the area of application with a disinfectant wipe before topical application of the reduced glutathione. The topical rGSH was administered in 5 sprays of rGSH for a total dosage of about 91.25 mg. The administered rGSH dried for about 30 seconds before the subject was re-clothed. The facial movements and body movements of the subject were filmed once per week to analyze progression or loss of TD symptoms.
Topical rGSH was prescribed for 5 applications of 5 sprays each day to: (a) their right arm, (b) right jaw and masseter area, and (c) their spine. The total amount of administered rGSH was a total of 25 squirts per day (which is approximately 456 mg of rGSH via a Glutathione supplement) as applied by the nursing staff.

[2] = tested on: subjects with chemotherapy-induced peripheral neuropathy (CIPN)
Description: Subjects were treated with topical and oral rGSH in a natural liposomal carrier after initial consultation. Subjects began treatment prior to their second visit. Follow-up consultations with subjects occurred weekly to monthly according to symptoms and needs.
Procedures for measuring CIPN were based on interviews performed by a medical professional with subjects. The physician measured nerve sensitivity in some of the subjects using in-office medical instruments.

[3] = tested on: fibromyalgia syndrome (FMS) subjects; details: 43 subjects; rGSH with low copper diet and support product
Excerpt: 43 fibromyalgia subjects underwent dietary changes supplements including: (a) a low copper diet, (b) a support product containing molybdenum, boron, zinc chelate, pyridoxine, N-Acetyl L-Cysteine, L-serine and L-glutamine, and (c) rGSH.

[4] = tested on: subjects with chronic shingles and post-herpetic neuralgia (PHN); test: Topical reduced glutathione in a liposomal carrier in chronic shingles / post-herpetic neuralgia; assay type: in vivo, human
Excerpt: Most the subjects at the time of the first visit reported significant depression and suicidal thoughts. Most subjects also reported giving up hope. […] The self-rated pain averaged a 7, but many subjects reported that when a break-out was occurring, the pain could spike to a 10. Videos and pictures were taken where and when appropriate with proper releases documented.

[5] = tested on: subject with partial and full thickness burn lesions
Description: The subject was treated with topical applications of rGSH. The subject was administered the rGSH 5-8 times a day over a 3-month period.
A subject had accidentally burned themself on an outdoor grill. The subject was treated with rGSH at 5-8 times a day with topical application. The subject was also treated with Cephalexin 500 mg in case of infection.

[6] = tested on: subject with diabetic peripheral neuropathy (DN); test: Topical and oral rGSH in diabetic peripheral neuropathy (case study); details: for outcome of diabetic neuropathy: person, 13 weeks of therapy
[7] = after 35 days of rGSH treatment

Question: Which “outcome of TD” value ([1]; after 10 weeks of treatment) does the source give for N[C@@H](CCC(=O)N[C@@H](CS)C(=O)NCC(=O)O)C(=O)O [rGSH, reduced glutathione] here?
Answer: resolved completely

Question: What about the “interval between involuntary jaw movements (masseter muscles)” value ([1]; after 21 days of topical rGSH, about 456 mg/day, before treatment about every 1-2 seconds) of the same compound?
Answer: 4 to 5 s

Question: And the “interval between involuntary arm movements” value ([1]; after 21 days of topical rGSH, before treatment about every 1-2 seconds)?
Answer: 4 to 5 s

Question: What about the ambulation ([1]; after 42 days) of the same compound?
Answer: no longer used assistance for walking up and down stairs

Question: What about the “interval between facial and arm movements” value ([1]; after 42 days of topical rGSH) of the same compound?
Answer: ~10 s

Question: What about the “pain in shoulder, back and jaw” value ([1]; after 42 days, compared with the 21 day period) of the same compound?
Answer: substantially decreased

Question: And the “involuntary facial or arm movement” value ([1]; after 70 days)?
Answer: no longer had involuntary facial or arm movement

Question: And the pain ([1]; after 70 days)?
Answer: substantially free of pain

Question: What about the TD symptoms ([1]; after 70 days of rGSH administration) of the same compound?
Answer: substantially free of symptoms

Question: What about the “time to major resolution of symptoms” value ([2]; Patient 5-C) of the same compound?
Answer: ≤ 3 days

Question: What about the “pain in the feet” value ([2]; Patient 5-C, Day 63) of the same compound?
Answer: no longer felt pain in the feet

Question: What about the CIPN symptoms ([2]; Patient 5-D, Day 31) of the same compound?
Answer: substantial decrease in symptoms

Question: What about the “feeling better since starting treatment” value ([2]; Patient 5-D, Day 38) of the same compound?
Answer: about 70%

Question: And the decrease in symptoms ([2]; Patient 5-D, Day 52)?
Answer: 80%

Question: And the “CIPN symptoms resolved, as reported by the subject” value ([2]; Subject 5-A, Day 12, only took rGSH orally)?
Answer: about 40%

Question: What about the CIPN symptoms ([2]; Subject 5-B, Day 7) of the same compound?
Answer: improved symptoms

Question: What about the “improvement of symptoms since using rGSH” value ([2]; Subject 5-B, Day 42) of the same compound?
Answer: 50%

Question: What about the “resolution of CIPN symptoms” value ([2]; Subject 5-B, Day 84) of the same compound?
Answer: 70%

Question: What about the “resolution of CIPN symptoms” value ([2]; Subject 5-B, Day 112) of the same compound?
Answer: 70%

Question: And the “resolution of CIPN symptoms” value ([2]; Subject 5-B, Day 245, rGSH stopped for a few months)?
Answer: 70%

Question: And the FMS symptoms [3]?
Answer: substantial resolution

Question: What about the “pain in fibromyalgia subjects” value [3] of the same compound?
Answer: substantially reduced pain

Question: What about the “time to nearly complete resolution of symptoms” value ([4]; one subject with shingles and PHN for about nine years) of the same compound?
Answer: ≤ 34 min

Question: And the “share of subjects with nearly complete resolution only over a more extended period” value ([4]; over a hundred patients and volunteers with shingles)?
Answer: Less than 5%

Question: What about the “extended period to nearly complete resolution” value ([4]; the subjects with slower response) of the same compound?
Answer: 2 to 5 days

Question: What about the burn pain ([5]; 10 weeks after the burn) of the same compound?
Answer: no longer had any pain

Question: What about the burn pain ([5]; after 21 days of rGSH treatment) of the same compound?
Answer: tolerable

Question: And the “infection of the burn” value [5, 7]?
Answer: No infection had occurred

Question: What about the “state of the wound” value [5, 7] of the same compound?
Answer: dead skin and eschar were gone and new skin has started to epithelialize

Question: What about the “state of the wound” value ([5]; after 49 days of treatment) of the same compound?
Answer: nearly healed

Question: And the “burn pain within an hour of application” value ([5]; day of the burn)?
Answer: nearly dissipated

Question: What about the “time until pain was subsiding after topical application” value ([5]; day of the burn) of the same compound?
Answer: ≤ 30 min

Question: And the “course of burn healing” value ([5]; topical rGSH 5-8 times per day over a 3-month period)?
Answer: Healing commenced immediately with minimal pain, minimal scarring, no infection, and minimal drainage

Question: What about the “renal or liver functions” value ([6]; after 13 weeks of therapy) of the same compound?
Answer: No effect

Question: And the HBA1C ([6]; after 13 weeks of therapy, 10.0% before)?
Answer: 10.1%

Question: What about the “neuropathy in the hands” value ([6]; oral and topical rGSH, weekly examination) of the same compound?
Answer: complete resolution in their hands in the first few weeks

Question: What about the “outcome of diabetic neuropathy” value [6] of the same compound?
Answer: resolved substantially

Question: And the “outcome of diabetic neuropathy” value ([6]; listed as stable rGSH)?
Answer: resolved

Question: What about the “diabetic neuropathy in seven other subjects” value ([6]; seven other subjects treated with stable rGSH) of the same compound?
Answer: complete resolution

Question: For Nc1nc2c(ncn2COCCO)c(=O)[nH]1 [acyclovir, reference compound], which “effect of earlier chronic medication on shingles/PHN pain” value ([4]; chronic doses before rGSH treatment) is on record?
Answer: without substantial ameliorative effect

Question: C[C@]12CC[C@H]3[C@@H](CCC4=CC(=O)CC[C@@]43C)[C@@H]1CC[C@@H]2O [injectable testosterone, testosterone, reference compound] was tested. Which “effect on the subject's issues (insulin sensitivity, muscle strength, neuropathy)” value ([6]; modest dose, before rGSH treatment) did it give?
Answer: did not have a substantial effect

— patent US20240009265A1, “METHODS OF TREATMENT COMPRISING STABLE REDUCED GLUTATHIONE” (Blue Sky Innovation, LLC, priority 2020, published 2024)
